# Publication PMC6520677, “Marine Fungi from the Sponge Grantia compressa: Biodiversity, Chemodiversity, and Biotechnological Potential” (Marine Drugs, 2019)
# Where two headings read alike, the source gives them in different places.
# Legend:
# [1] = tested on: Enterococcus faecalis ATCC 29212; assay: MIC, broth microdilution (CLSI); format: cell-based
# [2] = tested on: Staphylococcus aureus ATCC 29213; assay: MIC, broth microdilution (CLSI); format: cell-based
# [3] = tested on: Streptococcus pneumoniae ATCC 49619; assay: MIC, broth microdilution (CLSI); format: cell-based
# [4] = tested on: Pseudomonas aeruginosa ATCC 27853; assay: MIC, broth microdilution (CLSI); format: cell-based
# [5] = tested on: fluoroquinolone-resistant S. aureus Monza-FD1; assay: MIC, broth microdilution (CLSI); format: cell-based, Staphylococcus aureus
# [6] = tested on: Escherichia coli ATCC 25922; assay: MIC, broth microdilution (CLSI); format: cell-based
# [7] = tested on: methicillin-resistant Staphylococcus aureus (MRSA) Monza-PFI; assay: MIC, broth microdilution (CLSI); format: cell-based
# [8] = tested on: macrolide-resistant S. pneumoniae Monza-82; assay: MIC, broth microdilution (CLSI); format: cell-based, Streptococcus pneumoniae; details: for sensitivity of the strain to the compound: S. pneumoniae Monza-82
# [9] = tested on: macrolide-resistant S. pneumoniae Monza-82; assay: MBC determination (plating of MIC wells); format: cell-based, Streptococcus pneumoniae; details: for MBC: Streptococcus pneumoniae; for bactericidal activity: S. pneumoniae Monza-82 strain only
# Experimental: (§1) Plates were incubated at 37 °C in aerobic conditions or in 5% CO2 atmosphere and checked for bacterial growth after 24 h.
# [10] = tested on: fluoroquinolone-resistant S. aureus Monza-FD1; assay: MBC determination (plating of MIC wells); format: cell-based; details: Staphylococcus aureus
# Experimental: as §1
# bacteria = tested on: bacteria; design: method as in ref 20 Zin et al.; details: ref 20 Zin et al.; cited from earlier work
# P. aeruginosa = tested on: P. aeruginosa; design: method as in PMID 16261521; details: cited from earlier work
# Klebsiella pneumoniae = tested on: Klebsiella pneumoniae; design: method as in PMID 16261521; details: cited from earlier work
# [11] = tested on: influenza A virus strain A/Puerto Rico/8/34 (IAV); assay: Plaque reduction assay (PRA) on MDCK cells; format: cell-based
# [12] = tested on: herpes simplex virus 1 (HSV-1) clinical isolate; assay: Plaque reduction assay (PRA) on VERO cells; format: cell-based; details: 48 h p.i.
# Micrococcus luteus = tested on: Micrococcus luteus; design: method as in PMID 16261521; details: cited from earlier work
# in vitro [13] = details: African green monkey
# Experimental: (§2) African green monkey kidney cells (VERO, ATCC-American Type Culture Collection CCL-81) and Madin Darby Canine Kidney cells (MDCK, ATCC® CRL-2936™) were propagated in Dulbecco’s modified Eagle medium (DMEM; Euroclone), supplemented with 10% fetal bovine serum (FBS; Euroclone), 2 mM L-glutamine, 1 mM sodium pyruvate, 100 U/mL penicillin, and 100 μg/mL streptomycin sulfate.
# (§3) The plates were incubated for 48 h at 37 °C, and then 100 μL of CellTiter-Glo reagent (Promega) was added to lyse the cells and to determine cell viability according to the producer’s instructions.
# in vitro [14] = details: dog
# Experimental: as §2, §3
# [15] = tested on: reference strains and multidrug-resistant isolates; assay: Antibacterial activity, whole panel (MIC); details: concentrations tested 0.015–32 μg/mL
# Experimental: (§4) Representatives of Gram-positive and Gram-negative bacteria were selected for the antimicrobial susceptibility tests. Three Gram-positive reference strains (Staphylococcus aureus ATCC 29213, Streptococcus pneumoniae ATCC 49619, and Enterococcus faecalis ATCC 29212) and two Gram-negative reference strains (Escherichia coli ATCC 25922 and Pseudomonas aeruginosa ATCC 27853) were used. Furthermore, antibacterial activity of the isolated compounds was also assessed against recently isolated clinical strains, selected and characterized as resistant or multidrug-resistant (MDR), from the MicroMiB collection owned and maintained by the Laboratory of Clinical Microbiology and Virology of the University of Milano-Bicocca, Monza, Italy: a methicillin-resistant Staphylococcus aureus (MRSA) Monza-PFI, a fluoroquinolone-resistant S. aureus Monza-FD1, and a macrolide-resistant S. pneumoniae Monza-82.
# (§5) MICs were determined following Clinical and Laboratory Standards Institute (CLSI) guidelines for the broth microdilution method [33]. […]
# (§6) The plates were incubated at 37 °C for 18–24 h. After the incubation, each well was checked for the absence of bacterial pellets and the clearness of the solution; then, the MIC value (μg/mL), defined as the lowest concentration of antimicrobial agent causing visible inhibition of bacterial growth, was determined.
# [16] = tested on: Mycobacterium tuberculosis; design: method as in ref 86 Ganihigama et al.; details: ref 86 Ganihigama et al.; cited from earlier work
# S. aureus strains = assay: MIC, summary in text for S. aureus strains; details: Staphylococcus aureus
# Experimental: as §4, §5, §6
# [17] = tested on: Staphylococcus aureus ATCC 29213; assay: MBC determination (plating of MIC wells); format: cell-based
# Experimental: as §1
# [18] = tested on: methicillin-resistant Staphylococcus aureus (MRSA) Monza-PFI; assay: MBC determination (plating of MIC wells); format: cell-based
# Experimental: as §1
# [19] = tested on: reference and MRSA S. aureus strains; design: method as in PMID 23024574; details: low concentration tested; cited from earlier work
# [20] = tested on: Enterococcus faecalis ATCC 29212; assay: MBC determination (plating of MIC wells); format: cell-based
# Experimental: as §1
# bacteria tested = assay: Bactericidal activity, whole panel (MBC); format: cell-based; details: most of the bacteria tested
# Experimental: as §1
# [21] = Cytotoxicity assay (CellTiter-Glo); details: dog
# Experimental: as §2, §3
# MDCK cells = assay: Cytotoxicity assay (CellTiter-Glo); details: MDCK cells, lowest dose 12.5 µg/mL, 48 h
# Experimental: as §2, §3
# Gram-positive bacteria = assay: MIC, summary in text for Gram-positive bacteria; details: majority of Gram-positive bacteria tested (except S. pneumoniae ATCC 49619)
# Experimental: as §4, §5, §6
# [22] = ATCC29212, E. faecalis ATCC 29212, read-out: MIC
# [23] = ATCC29213, S. aureus ATCC 29213, read-out: MIC
# [24] = ATCC49619, S. pneumoniae ATCC 49619, read-out: MIC
# [25] = ATCC27853, P. aeruginosa ATCC 27853, read-out: MIC
# [26] = Staphylococcus aureus, S. aureus Monza-FD1 (fluoroquinolone-resistant), read-out: MIC
# [27] = ATCC25922, E. coli ATCC 25922, read-out: MIC
# [28] = S. aureus Monza-PFI (MRSA), read-out: MIC
# [29] = Streptococcus pneumoniae, S. pneumoniae Monza 82 (macrolide-resistant), read-out: MIC
# [30] = S. pneumoniae Monza 82 (macrolide-resistant), read-out: MBC
# [31] = S. aureus Monza-FD1 (fluoroquinolone-resistant), read-out: MBC
# [32] = Influenza A virus, MDCK, 48 h, read-out: inhibition of replication of IAV
# [33] = ATCC29213, S. aureus ATCC 29213, read-out: MBC
# [34] = S. aureus Monza-PFI (MRSA), read-out: MBC
Compound,"MIC [1, 22]","MIC [2, 23]","MIC [3, 24]","MIC [4, 25]","MIC [5, 26]","MIC [6, 27]","MIC [7, 28]","MIC [8, 29]","MBC [9, 30]",other results
"CC(=O)O[C@H]1C[C@@]2(C)[C@@H](C[C@@H](O)[C@H]3[C@@]4(C)CC[C@@H](O)[C@@H](C)[C@@H]4CC[C@@]32C)/C1=C(\CCC=C(C)C)C(=O)O [Fusidic acid, fusidic acid, reference compound]",4 µg/mL,0.12 µg/mL,4 µg/mL,–,–,–,–,–,–,–
"COc1cc(O)c2c(c1)C(=O)c1cc(C)c(C(=O)O)c(O)c1C2=O [Cinnalutein (9), cinnalutein]",> 128 µg/mL,> 128 µg/mL,> 128 µg/mL,> 128 µg/mL,128 µg/mL,> 128 µg/mL,> 128 µg/mL,32 µg/mL,> 128 µg/mL,"MIC ([5]; S. aureus Monza-FD1 (fluoroquinolone-resistant)): 128 µg/mL; MIC ([8]; S. pneumoniae Monza 82 (macrolide-resistant)): 32 µg/mL; MBC [10, 31]: > 128 µg/mL"
"CN(C)[C@@H]1C(O)=C(C(N)=O)C(=O)[C@@]2(O)C(O)=C3C(=O)c4c(O)cccc4[C@@](C)(O)[C@H]3C[C@@H]12 [Tetracycline, tetracycline, reference compound]",8 µg/mL,0.12 µg/mL,0.12 µg/mL,8 µg/mL,1 µg/mL,1 µg/mL,1 µg/mL,≤ 0.06 µg/mL,–,–
"COc1cc(O)c2c(c1)C(=O)c1cc(C)cc(O)c1C2=O [Physcion (3), physcion]",> 32 µg/mL,> 32 µg/mL,> 32 µg/mL,> 32 µg/mL,> 32 µg/mL,> 32 µg/mL,> 32 µg/mL,16 µg/mL,> 32 µg/mL,"antibacterial activity (bacteria): no antibacterial activity; MIC (P. aeruginosa): 200 µg/mL; MIC (Klebsiella pneumoniae): 250 µg/mL; inhibition at 25 µg/mL [11, 32]: 80%; sensitivity of the strain to the compound [8]: showed sensitivity; inhibition at 25 µg/mL ([12]; Human alphaherpesvirus 1, compound at 25 µg/mL, read-out: inhibition of HSV-1 replication): 100%; inhibition of HSV-1 replication ([12]; compound at 25 µg/mL): total inhibition; MIC (Micrococcus luteus): 200 µg/mL"
"CCCCCCCc1c(O)cc(CC=C(C)C)c(O)c1C=O [Flavoglaucin (5), flavoglaucin]",> 32 µg/mL,> 32 µg/mL,> 32 µg/mL,> 32 µg/mL,> 32 µg/mL,> 32 µg/mL,> 32 µg/mL,> 32 µg/mL,–,CC50 at 48 h (in vitro [13]): < 12.5 µg/mL; CC50 at 48 h (in vitro [14]): < 12.5 µg/mL; antibacterial activity [15]: did not show antibacterial activity
"C=CC(C)(C)c1[nH]c2cc(CC=C(C)C)ccc2c1/C=C1\NC(=O)[C@H](C)NC1=O [Neoechinulin D (7), neoechinulin D]",> 128 µg/mL,> 128 µg/mL,> 128 µg/mL,> 128 µg/mL,> 128 µg/mL,> 128 µg/mL,> 128 µg/mL,64 µg/mL,> 128 µg/mL,"inhibition at 50 µg/mL [11, 32]: 70%; sensitivity of the strain to the compound [8]: showed sensitivity; inhibition at 50 µg/mL ([12]; Human alphaherpesvirus 1, compound at 50 µg/mL, read-out: inhibition of HSV-1 replication): 100%; inhibition of HSV-1 replication ([12]; compound at 50 µg/mL): total inhibition"
"CC[C@H]1OC(=O)[C@H](C)[C@@H](O[C@H]2C[C@@](C)(OC)[C@@H](O)[C@H](C)O2)[C@H](C)[C@@H](O[C@@H]2O[C@H](C)C[C@H](N(C)C)[C@H]2O)[C@](C)(O)C[C@@H](C)C(=O)[C@H](C)[C@@H](O)[C@]1(C)O [Erythromycin, erythromycin, reference compound]",2 µg/mL,0.5 µg/mL,0.12 µg/mL,–,0.5 µg/mL,–,8 µg/mL,16 µg/mL,–,–
"C=CC(C)(C)c1[nH]c2c(CC=C(C)C)cc(CC=C(C)C)cc2c1C[C@@H]1NC(=O)[C@H](C)NC1=O [Echinulin (1), echinulin]",–,–,–,–,–,–,–,–,–,MIC ([1]; ATCC29212): > 128 µg/mL; MIC ([4]; ATCC27853): > 128 µg/mL; MIC ([5]; Staphylococcus aureus): > 128 µg/mL; MIC ([2]; ATCC29213): > 128 µg/mL; MIC ([6]; ATCC25922): > 128 µg/mL; MIC ([7]; MRSA): > 128 µg/mL; MIC ([3]; ATCC49619): > 128 µg/mL; MIC ([8]; Streptococcus pneumoniae): > 128 µg/mL
"COc1cc(O)cc2cc3c(c(O)c12)C(=O)C[C@](C)(O)C3 [Asperflavin (8), asperflavin]",> 128 µg/mL,64 µg/mL,> 128 µg/mL,> 128 µg/mL,64 µg/mL,> 128 µg/mL,128 µg/mL,32 µg/mL,128 µg/mL,"MIC [16]: 25 µg/mL; MIC (S. aureus strains): 64 µg/mL; bactericidal activity [9]: positive results; MBC [17, 33]: > 128 µg/mL; MBC [18, 34]: > 128 µg/mL; MBC [10, 31]: > 128 µg/mL"
"C[C@@H]1NC(=O)[C@H](Cc2c[nH]c3ccccc23)NC1=O [Cyclo-L-Trp-L-Ala (10), cyclo-L-Trp-L-Ala]",> 128 µg/mL,> 128 µg/mL,> 128 µg/mL,> 128 µg/mL,> 128 µg/mL,> 128 µg/mL,> 128 µg/mL,> 128 µg/mL,–,–
"CNC(C)C1CCC(N)C(OC2C(N)CC(N)C(OC3OCC(C)(O)C(NC)C3O)C2O)O1 (stereo not shown) [Gentamicin, reference compound]",> 128 µg/mL,0.5 µg/mL,–,1 µg/mL,1 µg/mL,0.5 µg/mL,> 128 µg/mL,–,–,–
"CCC/C=C/C=C/c1c(O)cc(CC=C(C)C)c(O)c1C=O [Dihydroauroglaucin (4), dihydroauroglaucin]",64 µg/mL,128 µg/mL,> 128 µg/mL,> 128 µg/mL,128 µg/mL,> 128 µg/mL,128 µg/mL,8 µg/mL,32 µg/mL,"antibacterial activity [19]: inactive; MIC (S. aureus strains): 128 µg/mL; inhibition of replication of IAV [11]: completely inhibited; inhibition at 25 µg/mL [11, 32]: 100%; bactericidal activity [9]: positive results; MBC ([20]; ATCC29212, E. faecalis ATCC 29212, read-out: MBC): > 128 µg/mL; MBC [17, 33]: > 128 µg/mL; MBC [18, 34]: > 128 µg/mL; MBC [10, 31]: > 128 µg/mL"
"C/C=C/C=C/CCc1c(O)cc(CC=C(C)C)c(O)c1C=O [Isodihydroauroglaucin (6), isodihydroauroglaucin]",64 µg/mL,64 µg/mL,> 128 µg/mL,> 128 µg/mL,–,> 128 µg/mL,–,–,–,bactericidal activity (bacteria tested): bactericidal activity; MIC ([5]; Staphylococcus aureus): 32 µg/mL; MIC ([7]; MRSA): 64 µg/mL; CC50 at 48 h [21]: < 12.5 µg/mL; cell toxicity (not toxic = at least 70% cell viability) (MDCK cells): toxic; MIC values range (Gram-positive bacteria): 4 to 64 µg/mL; MIC ([8]; Streptococcus pneumoniae): 4 µg/mL; MBC [9]: 16 µg/mL; MBC ([20]; ATCC29212): > 128 µg/mL; MBC ([17]; ATCC29213): 128 µg/mL; MBC ([18]; MRSA): 128 µg/mL; MBC [10]: 64 µg/mL
